Like-named read-outs stand apart in the source and are kept apart here.
Experiments:
[1] = In vitro release of curcumin from device for cervical insertion; type: physicochemical; conditions: after approximately 5 days in release medium; 18 days release period
Method: The medium was replaced daily and the amount of curcumin released from the compositions per day was measured spectrophotometrically against a standard curve and expressed as micrograms per day.

[2] = Safety and biocompatibility of curcumin implants; type: in vivo; conditions: curcumin doses administered by the implants; at least 3 months
Excerpt: As such, the further study was designed in continuation to above-described experiments (i) to analyze the in vivo release from these implants, (ii) to compare the tissue distribution of curcumin delivered via these implants with curcumin delivered via diet, and finally (iii) to compare the efficacy of curcumin delivered via both routes.

[3] = In vivo release of curcumin from PCL-121K:PEG-8K implants (residual content); set-up: species or system ACI rats
Excerpt: The in vivo cumulative release was studied in female Augustus Copenhagen Irish (ACI) rats following an approved protocol from an Institutional Animal Care and Use Committee (IACUC). […] All the animals were provided food and water ad libitum. Sham and curcumin implants were subcutaneously grafted at the back of the rats and were monitored for their diet intake and body weight. Animals were euthanized at different time intervals by asphyxiation to collect blood, liver, brain, local tissues and implants. All the tissues were snap frozen in liquid nitrogen and stored at −80° C. until further analysis.
Initial and residual curcumin content in the implants was also analyzed to determine the cumulative drug release. Implants recovered from animals were dissolved in 5 ml dichloromethane. […] The solution was then diluted suitably (400-fold) with ethanol.
where T1, T2, T3, . . . Tn are different time intervals.

[4] = test system: B[a]P-induced DNA adducts
[5] = test system: B[a]P-induced DNA adducts; remark: listed apart in the source
DBP-DNA adducts = experiment: Dibenzo[a,I]pyrene (DBP)-DNA adducts in lung (32P-postlabeling); type: in vivo, A/J mice; conditions: two 1.5 cm coated implants; DBP implant; 3 weeks
Method: To assess the coated implants (i.e., where the compositions were in the form of coatings), in vivo studies were also performed. […] All groups of animals were also treated with dibenzo[a,I]pyrene (DBP) via polymeric implants (1-cm, 1.4 mm dia, 5% DBP load) at the same time. Implants were grafted subcutaneously, and animal were euthanized after 3 weeks. […] In both cases, animals were euthanized by CO2 asphyxiation and selected tissues (lung, liver and brain) were collected and stored at −80° C. until processing. Implants were also recovered, dried under vacuum and stored in amber vials under argon at 4° C. until analysis.
To analyze the formation of DNA adducts, DNA was isolated from lung tissue (200 mg) by treatment of the isolated crude nuclei with RNases and proteinase K, followed by extractions with phenol, phenol:Sevag and Sevag. DNA was recovered by ethanol precipitation and its concentration was measured spectrophotometrically considering 1 A260 equals 50 μg DNA. DNA adducts were analyzed by nuclease P1-mediated ^32P-postlabeling/TLC assay and expressed as adducts per 10^9 nucleotides.

[6] = Tissue curcuminoid levels after coated implants (UPLC); type: in vivo, A/J mice; conditions: female, A/J, mouse, in vivo
Method: Briefly, liver and brain tissues (500 and 400 mg, respectively) from each animal were homogenized in 3 ml PBS (pH 7.4) containing 200 μl of 0.5 M sodium acetate, and extracted with ethyl acetate. After evaporation of the pooled extracts, the residue was reconstituted in 100 μl acetonitrile and analyzed by UPLC using Shimadzu UPLC system (Kyoto, Japan), with a Shim-Pack XR-ODS II reverse phase column (Shimadzu; 150×3.0 mm i.d., 2.2 μm).

GSTM = GSTM levels in hepatic microsomes (Western blotting); type: in vivo, ACI rats; conditions: implant and dietary routes
Method: (§1) To evaluate the xenobiotic-metabolizing enzymes, liver samples from the animals (approximately 100 mg) were homogenized in 0.25 M sucrose buffer (pH 7.4) at 3000 rpm with Polytron. The homogenate was centrifuged at 3000 g for 20 min at 4° C. to separate the nuclear content, and the supernatant was then collected and again centrifuged at 11,000 g for 20 min at 4° C. to separate the mitochondria. The post-mitochondrial supernatant was then transferred to ultracentrifuge tubes and finally centrifuged at 100,000 g for 1 h at 4° C. to separate the microsomes. The pellet was suspended in 1 ml sucrose buffer, aliquoted and stored at −80° C. until use.
Microsomal proteins were subsequently quantified using a bicinchoninic acid (BCA) method and a BCA™ Protein Assay kit (Thermo Scientific, Rockford, Ill.) and were resolved by sodium dodecyl sulfatepolyacrylamide gel electrophoresis (SDS-PAGE) on a 10% gel. Protein bands were then transferred to polyvinylidene diflouride (PVDF) membrane, which was incubated with 5% non-fat dried milk in Tris-buffered-saline for 1 h at room temperature (25° C.) to block the non-specific binding sites. […] The bands were detected by enhanced chemiluminescence using Pierce® ECL Western-Blotting Substrate (Thermo Scientific, Rockford, Ill.) and quantified using VersaDoc Imaging System (BioRad Laboratories, Hercules, Calif.).

CYP3A4 = CYP3A4 activity in hepatic microsomes; type: in vivo, ACI rats
Method: as §1

[7] = 1 cm PCL matrix with 20 mg curcumin, s.c., bolus B[a]P
[8] = dietary curcumin 400 ppm, bolus B[a]P
[9] = dietary curcumin 400 ppm, single i.p. B[a]P 50 mg/kg
[10] = curcumin implants, B[a]P implant 1 cm, 10 mg, 30 days post B[a]P
[11] = curcumin implants, sustained low dose B[a]P, 30 days

in vivo burst release on day 1 ([3]; 2-cm implant, 40 mg, s.c.): approximately 1800 μg
curcumin released after 1 day of implantation ([3]; from weight loss studies): 1.8 mg
curcumin delivered by both the implants combined ([3]; over 90 days, versus around 900 mg by diet): 38 mg
cumulative in vivo release after 1 month ([3]; rat, in vivo): approximately 30%
in vivo drug release after 3 months ([3]; rat, in vivo): approximately 130 μg/day
in vivo drug release over a period of 1 month ([3]; rat, in vivo): 300 to 350 µg/day
in vivo release on day 4 ([3]; rat, in vivo): approximately 380 μg
dose of curcumin delivered by the implant ([4]; bolus B[a]P study): approximately 80 μg/rat/day
concentration at 21 days [6]: 15 ng/g
SMILES: COc1cc(/C=C/C(=O)CC(=O)/C=C/c2ccc(O)c(OC)c2)ccc1O [curcumin]
amount of curcumin released per day from device [1]: decreased and approached lower steady-state levels
liver and kidney function [2]: did not induce any biochemical changes in liver and kidney function
inhibition of B[a]P-induced DNA adducts, liver [4, 7]: 48%
inhibition of B[a]P-induced DNA adducts, lung [4, 7]: 17%
DNA adduct level, liver [4, 8]: 74±110 adducts/10^9 nucleotides
DNA adduct level, lung [4, 8]: 65±53 adducts/10^9 nucleotides
inhibition of B[a]P-induced DNA adducts, liver [4, 9]: 83%
inhibition of B[a]P-induced DNA adducts, lung [4, 9]: 45%
B[a]P-induced DNA adducts in liver and lung versus sham implant ([5]; 1 cm matrix 20% w/w curcumin, B[a]P implant, 30 days): inhibited the B[a]P-induced DNA adducts in both the liver and lung
inhibition of adducts, liver [5, 10]: 83%
inhibition of adducts, lung [5, 10]: 65%
DNA adduct level, liver [5, 11]: 4±0.7 adducts/10^9 nucleotides
DNA adduct level, lung [5, 11]: 9±5 adducts/10^9 nucleotides
lung DBP-DNA adduct levels (DBP-DNA adducts): virtually no effect
GSTM levels (GSTM): not found to get modulated
CYP3A4 activity (CYP3A4; curcumin diet, 12 days): reduced to basal levels
CYP3A4 activity compared to untreated animals (CYP3A4; curcumin diet, after 4 days): significant higher
CYP3A4 activity (CYP3A4; curcumin diet, day 1): slightly higher activity
increase in CYP3A4 activity compared with sham implants (CYP3A4; curcumin implants): became significant only after 25 days
CYP3A4 activity (CYP3A4; curcumin implants, after 3 months): remained consistently upregualated
